Each structure is given as a SMILES string.

This experiment can be described thus: Stabilization of polyesters (rancimate, conductivity of separation products). The note with it: 0.20% stabilizer; 1 hour under pure oxygen at 290° C.; without stabilizer 47. As for the experimental part:
2.5 kg of a polyester which has been dried for 12 hours at 120° C. in a vacuum drying oven (Polyclear® T86, of Hoechst) is charged with the stabilizers listed in Table 23 and is mixed for 2 hours in a Henschel mixer. This mixture is then extruded in a Schwabenthan extruder at a maximum of 275° C. The polymer string is then granulated. The granulate so obtained is dried for another 12 hours in a vacuum drying oven. In a double determination, 500 mg of the granulate is heated over 10 minutes to 290° C. and is stored for 1 hour under pure oxygen in a rancimate at 290° C. The resulting gaseous separation products are continuously led into an aqueous collecting solution and the conductivity (μS) of this solution is continuously measured. Low conductivity values signify that few separation products are formed, high conductivity values signify that very many separation products are formed. […]

Compound `CC(C)(C)c1cc2c(c(C(C)(C)C)c1)OC(=O)C2c1cccc(C#N)c1` (stereo not shown) [Compound (107)] showed a Conductivity of 34 μS.

These data come from US6809208B2, “3-Arylbenzofuranones with electron-withdrawing substituents as stabilizers” (Ciba Specialty Chemicals Corporation, priority 2000, dated 2004).
